Test results: BindingDB's records for doi:10.1016/j.bmc.2008.07.037 (Merck Research Laboratories, 2008)

Test: Inhibition of glucocorticoid-mediated human MMP1 expression in PMA stimulated A549 cells assessed as MMP1 protein level by ELISA

SMILES: C[C@H]1C[C@H]2[C@@H]3CCC4=CC(=O)C=C[C@]4(C)[C@@]3(F)[C@@H](O)C[C@]2(C)[C@@]1(OC(=O)NCCC(C)(C)C)C(=O)CO [(8S,9R,10S,11S,13S,14S,16S,17R)-9-fluoro-11-hydroxy-17-(2-hydroxyacetyl)-10,13,16-trimethyl-3-oxo-6,7,8,9,10,11,12,13,14,15,16,17-dodecahydro-3H-cyclopenta[a]phenanthren-17-yl 3,3-dimethylbutylcarbamate]
- EC50: 21 nM

SMILES: CC(C)NC(=O)O[C@]1(C(=O)CO)[C@@H](C)C[C@H]2[C@@H]3CCC4=CC(=O)C=C[C@]4(C)[C@@]3(F)[C@@H](O)C[C@@]21C [(11beta,16beta)-9-Fluoro-11,21-dihydroxy-16-methyl-3,20-dioxopregna-1,4-dien-17-yl isopropylcarbamate]
- EC50: 1.9 nM

SMILES: C[C@H](NC(=O)O[C@]1(C(=O)CO)[C@@H](C)C[C@H]2[C@@H]3CCC4=CC(=O)C=C[C@]4(C)[C@@]3(F)[C@@H](O)C[C@@]21C)c1ccccc1 [(11beta,16beta)-9-Fluoro-11,21-dihydroxy-16-methyl-3,20-dioxopregna-1,4-dien-17-yl (1S)-1-phenylethylcarbamate]
- EC50: 4.9 nM

SMILES: CCNC(=O)O[C@]1(C(=O)CO)[C@@H](C)C[C@H]2[C@@H]3CCC4=CC(=O)C=C[C@]4(C)[C@@]3(F)[C@@H](O)C[C@@]21C [(11beta,16beta)-9-Fluoro-11,21-dihydroxy-16-methyl-3,20-dioxopregna-1,4-dien-17-yl ethylcarbamate]
- EC50: 15.9 nM

SMILES: C[C@H]1C[C@H]2[C@@H]3CCC4=CC(=O)C=C[C@]4(C)[C@@]3(F)[C@@H](O)C[C@]2(C)[C@@]1(OC(=O)NC1CCCCC1)C(=O)CO [(8S,9R,10S,11S,13S,14S,16S,17R)-9-fluoro-11-hydroxy-17-(2-hydroxyacetyl)-10,13,16-trimethyl-3-oxo-6,7,8,9,10,11,12,13,14,15,16,17-dodecahydro-3H-cyclopenta[a]phenanthren-17-yl cyclohexylcarbamate]
- EC50: 1.3 nM

SMILES: CCCNC(=O)O[C@]1(C(=O)CO)[C@@H](C)C[C@H]2[C@@H]3CCC4=CC(=O)C=C[C@]4(C)[C@@]3(F)[C@@H](O)C[C@@]21C [(11beta,16beta)-9-Fluoro-11,21-dihydroxy-16-methyl-3,20-dioxopregna-1,4-dien-17-yl propylcarbamate]
- EC50: 18.7 nM

SMILES: C=CCNC(=O)O[C@]1(C(=O)CO)[C@@H](C)C[C@H]2[C@@H]3CCC4=CC(=O)C=C[C@]4(C)[C@@]3(F)[C@@H](O)C[C@@]21C [(11beta,16beta)-9-Fluoro-11,21-dihydroxy-16-methyl-3,20-dioxopregna-1,4-dien-17-yl allylcarbamate]
- EC50: 39 nM

SMILES: C[C@H]1C[C@H]2[C@@H]3CCC4=CC(=O)C=C[C@]4(C)[C@@]3(F)[C@@H](O)C[C@]2(C)[C@@]1(OC(=O)NC(C)(C)C)C(=O)CO [(11beta,16beta)-9-Fluoro-11,21-dihydroxy-16-methyl-3,20-dioxopregna-1,4-dien-17-yl tert-butylcarbamate]
- EC50: 1.6 nM

SMILES: C[C@H]1C[C@H]2[C@@H]3CCC4=CC(=O)C=C[C@]4(C)[C@@]3(F)[C@@H](O)C[C@]2(C)[C@@]1(OC(=O)NC1CCCC1)C(=O)CO [(11beta,16beta)-9-Fluoro-11,21-dihydroxy-16-methyl-3,20-dioxopregna-1,4-dien-17-yl cyclopentylcarbamate]
- EC50: 2.8 nM

SMILES: CCC(C)NC(=O)O[C@]1(C(=O)CO)[C@@H](C)C[C@H]2[C@@H]3CCC4=CC(=O)C=C[C@]4(C)[C@@]3(F)[C@@H](O)C[C@@]21C (stereo partly drawn) [(8S,9R,10S,11S,13S,14S,16S,17R)-9-fluoro-11-hydroxy-17-(2-hydroxyacetyl)-10,13,16-trimethyl-3-oxo-6,7,8,9,10,11,12,13,14,15,16,17-dodecahydro-3H-cyclopenta[a]phenanthren-17-yl sec-butylcarbamate]
- EC50: 0.8 nM

SMILES: COC(=O)[C@H](C)NC(=O)O[C@]1(C(=O)CO)[C@@H](C)C[C@H]2[C@@H]3CCC4=CC(=O)C=C[C@]4(C)[C@@]3(F)[C@@H](O)C[C@@]21C [(11beta,16beta)-9-Fluoro-11,21-dihydroxy-16-methyl-3,20-dioxopregna-1,4-dien-17-yl (1S)-1-(methoxycarbonyl)-ethylcarbamate]
- EC50: 83 nM

SMILES: CCC(C)(C)NC(=O)O[C@]1(C(=O)CO)[C@@H](C)C[C@H]2[C@@H]3CCC4=CC(=O)C=C[C@]4(C)[C@@]3(F)[C@@H](O)C[C@@]21C [(8S,9R,10S,11S,13S,14S,16S,17R)-9-fluoro-11-hydroxy-17-(2-hydroxyacetyl)-10,13,16-trimethyl-3-oxo-6,7,8,9,10,11,12,13,14,15,16,17-dodecahydro-3H-cyclopenta[a]phenanthren-17-yl tert-pentylcarbamate]
- EC50: 53.3 nM

SMILES: CCCCNC(=O)O[C@]1(C(=O)CO)[C@@H](C)C[C@H]2[C@@H]3CCC4=CC(=O)C=C[C@]4(C)[C@@]3(F)[C@@H](O)C[C@@]21C [(11beta,16beta)-9-Fluoro-11,21-dihydroxy-16-methyl-3,20-dioxopregna-1,4-dien-17-yl butylcarbamate]
- EC50: 22 nM

SMILES: C[C@H]1C[C@H]2[C@@H]3CCC4=CC(=O)C=C[C@]4(C)[C@@]3(F)[C@@H](O)C[C@]2(C)[C@@]1(OC(=O)NCC(C)(C)C)C(=O)CO [(8S,9R,10S,11S,13S,14S,16S,17R)-9-fluoro-11-hydroxy-17-(2-hydroxyacetyl)-10,13,16-trimethyl-3-oxo-6,7,8,9,10,11,12,13,14,15,16,17-dodecahydro-3H-cyclopenta[a]phenanthren-17-yl neopentylcarbamate]
- EC50: 0.1 nM

SMILES: C[C@H]1C[C@H]2[C@@H]3CCC4=CC(=O)C=C[C@]4(C)[C@@]3(F)[C@@H](O)C[C@]2(C)[C@@]1(OC(=O)NC12CC3CC(CC(C3)C1)C2)C(=O)CO [Adamantan-1-yl-carbamic acid (8S,9R,10S,11S,13S,14S,16S,17R)-9-fluoro-11-hydroxy-17-(2-hydroxy-acetyl)-10,13,16-trimethyl-3-oxo-6,7,8,9,10,11,12,13,14,15,16,17-dodecahydro-3H-cyclopenta[a]phenanthren-17-yl este]
- EC50: 3.4 nM

SMILES: CCCCCNC(=O)O[C@]1(C(=O)CO)[C@@H](C)C[C@H]2[C@@H]3CCC4=CC(=O)C=C[C@]4(C)[C@@]3(F)[C@@H](O)C[C@@]21C [(8S,9R,10S,11S,13S,14S,16S,17R)-9-fluoro-11-hydroxy-17-(2-hydroxyacetyl)-10,13,16-trimethyl-3-oxo-6,7,8,9,10,11,12,13,14,15,16,17-dodecahydro-3H-cyclopenta[a]phenanthren-17-yl pentylcarbamate]
- EC50: 18 nM

SMILES: C[C@H]1C[C@H]2[C@@H]3CCC4=CC(=O)C=C[C@]4(C)[C@@]3(F)[C@@H](O)C[C@]2(C)[C@@]1(OC(=O)NC(C)(C)CC(C)(C)C)C(=O)CO [(8S,9R,10S,11S,13S,14S,16S,17R)-9-fluoro-11-hydroxy-17-(2-hydroxyacetyl)-10,13,16-trimethyl-3-oxo-6,7,8,9,10,11,12,13,14,15,16,17-dodecahydro-3H-cyclopenta[a]phenanthren-17-yl 2,4,4-trimethylpentan-2-ylcarbamate]
- EC50: 23.2 nM
